Reference: patent US10106538B2, “Inhibitors of protein kinases” (PRINCETON DRUG DISCOVERY INC, priority 2015, dated 2018)

Tests used:
Assay in all cases: Off-chip Mobility Shift Assay (MSA) kinase inhibition
Assay type in all cases: biochemical
[1] = target: T1, ACK (Homo sapiens, UniProt Q07912)
T1 construct: purchased Carna Biosciences
Experimental: (§1) Off-chip Mobility Shift Assay (MSA) by Cama Biosciences, Inc (Natick, Mass.) a used for measuring the kinase activity and inhibition. • 1) The 5 μL of x4 compound solution, 5 μL of x4 Substrate/ATP/Metal solution, and 10 μL of x2 kinase solution were prepared with assay buffer (20 mM HEPES, 0.01% Triton X100, 2 mM DTT, pH 7.5) and mixed and incubated in a well of polypropylene 384 well microplate for 1 or 5 hour(s)* at room temperature. (*; depending on kinase) • 2) 70 μL of Termination Buffer (QuickScout Screening Assist A; Cama Biosciences) was added to the welt • 3) The reaction mixture was applied to LabChip system (Perkin Elmer), and the product and substrate peptide peaks were separated and quantitated. • 4) The kinase reaction was evaluated by the product ratio calculated from peak heights of product (P) and substrate (S) peptides (P/(P+S)). • 5) The reaction conditions were followed according to assay protocols of Ca n Biosciences, Inc (BMA 3F, 1-5-5 Minatojima-Minamimachi, Chuo-ku, Kobe 650-0047, Japan; www.carnabio.com). • 6 Data analysis: The readout value of reaction control (complete reaction mixture) was set as a 0% inhibition, and the readout value of background (Enzyme (−)) was set as a 100% inhibition, then the percent inhibition of each test solution was calculated, […]

[2] = target: T2, BLK (Homo sapiens, UniProt P51451)
T2 construct: purchased Carna Biosciences
Experimental: as §1

[3] = target: T3, CSK (Homo sapiens, UniProt P41240)
T3 construct: purchased Carna Biosciences
T3 sequence (P41240 whole entry): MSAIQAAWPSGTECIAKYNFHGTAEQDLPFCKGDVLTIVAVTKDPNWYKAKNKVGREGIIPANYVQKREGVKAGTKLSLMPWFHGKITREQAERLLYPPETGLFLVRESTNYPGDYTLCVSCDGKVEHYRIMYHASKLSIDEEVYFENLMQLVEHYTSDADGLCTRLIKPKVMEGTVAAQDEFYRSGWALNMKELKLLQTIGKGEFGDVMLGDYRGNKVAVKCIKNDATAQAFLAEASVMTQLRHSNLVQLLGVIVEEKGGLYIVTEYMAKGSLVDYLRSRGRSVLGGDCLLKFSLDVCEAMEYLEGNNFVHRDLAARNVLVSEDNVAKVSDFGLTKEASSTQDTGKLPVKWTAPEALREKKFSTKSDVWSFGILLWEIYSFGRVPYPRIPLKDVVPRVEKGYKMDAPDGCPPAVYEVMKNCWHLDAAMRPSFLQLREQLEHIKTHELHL
Experimental: as §1

[4] = target: T4, DDR1 (Homo sapiens, UniProt Q08345)
T4 construct: purchased Carna Biosciences
T4 sequence (Q08345 19-913): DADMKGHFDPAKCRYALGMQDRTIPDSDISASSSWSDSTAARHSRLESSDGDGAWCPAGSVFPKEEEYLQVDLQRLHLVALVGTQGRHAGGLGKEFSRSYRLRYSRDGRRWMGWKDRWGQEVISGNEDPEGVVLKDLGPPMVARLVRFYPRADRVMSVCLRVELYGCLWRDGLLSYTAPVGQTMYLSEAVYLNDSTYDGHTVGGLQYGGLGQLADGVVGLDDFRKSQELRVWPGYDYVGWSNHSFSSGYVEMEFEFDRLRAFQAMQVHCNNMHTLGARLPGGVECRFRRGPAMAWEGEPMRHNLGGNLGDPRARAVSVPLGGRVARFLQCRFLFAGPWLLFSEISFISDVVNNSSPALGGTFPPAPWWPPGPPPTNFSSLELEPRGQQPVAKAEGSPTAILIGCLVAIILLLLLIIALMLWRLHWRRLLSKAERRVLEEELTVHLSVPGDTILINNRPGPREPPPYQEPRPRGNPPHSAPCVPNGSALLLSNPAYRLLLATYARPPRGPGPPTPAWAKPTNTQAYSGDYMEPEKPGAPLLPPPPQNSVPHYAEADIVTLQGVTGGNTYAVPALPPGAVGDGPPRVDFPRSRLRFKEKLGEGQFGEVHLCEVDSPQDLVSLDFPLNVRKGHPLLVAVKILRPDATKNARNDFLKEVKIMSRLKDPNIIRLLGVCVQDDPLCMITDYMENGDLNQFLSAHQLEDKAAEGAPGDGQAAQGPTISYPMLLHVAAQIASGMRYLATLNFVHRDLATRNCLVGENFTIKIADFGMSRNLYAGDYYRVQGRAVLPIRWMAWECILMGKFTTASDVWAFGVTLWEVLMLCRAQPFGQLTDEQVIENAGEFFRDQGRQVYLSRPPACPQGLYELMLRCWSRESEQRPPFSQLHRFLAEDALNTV
Experimental: as §1

[5] = target: T5, EPHA5 (Homo sapiens, UniProt P54756); conditions: inhibitor concentration 1 μM
T5 construct: purchased Carna Biosciences
Experimental: as §1

[6] = target: T6, FGFR1 (Homo sapiens, UniProt P11362); conditions: inhibitor concentration 1 μM
T6 construct: purchased Carna Biosciences
Experimental: as §1

[7] = target: T7, FLT4 (Homo sapiens, UniProt P35916); conditions: inhibitor concentration 1 μM
T7 construct: purchased Carna Biosciences
Experimental: as §1

[8] = target: T8, FRK (Homo sapiens, UniProt P42685); conditions: inhibitor concentration 1 μM
T8 construct: purchased Carna Biosciences
Experimental: as §1

[9] = target: T9, FYN(isoform a) (Homo sapiens, UniProt P06241)
T9 construct: purchased Carna Biosciences
T9 sequence (P06241 whole entry, canonical isoform): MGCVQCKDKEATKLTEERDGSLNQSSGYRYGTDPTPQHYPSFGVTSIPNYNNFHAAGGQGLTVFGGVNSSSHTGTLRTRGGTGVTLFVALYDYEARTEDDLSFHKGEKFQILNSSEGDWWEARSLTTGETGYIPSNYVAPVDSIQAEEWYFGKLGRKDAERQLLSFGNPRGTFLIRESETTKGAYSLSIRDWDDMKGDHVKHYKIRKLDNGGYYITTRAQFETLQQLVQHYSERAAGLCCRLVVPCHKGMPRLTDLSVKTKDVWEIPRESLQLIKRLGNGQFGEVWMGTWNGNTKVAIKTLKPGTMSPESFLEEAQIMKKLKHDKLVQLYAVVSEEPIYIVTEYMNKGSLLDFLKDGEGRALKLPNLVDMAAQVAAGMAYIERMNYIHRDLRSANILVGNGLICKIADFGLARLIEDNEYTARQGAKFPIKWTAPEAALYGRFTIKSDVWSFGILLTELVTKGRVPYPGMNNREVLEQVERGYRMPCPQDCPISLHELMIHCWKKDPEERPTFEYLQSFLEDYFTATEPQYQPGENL
Experimental: as §1

[10] = target: T10, KIT(D816E) (Homo sapiens, UniProt P10721, D816E); conditions: inhibitor concentration 1 μM
T10 construct: purchased Carna Biosciences
Experimental: as §1

[11] = target: T11, MAP2K3 (Homo sapiens, UniProt P46734); conditions: inhibitor concentration 1 μM
T11 construct: purchased Carna Biosciences
T11 sequence (P46734 whole entry): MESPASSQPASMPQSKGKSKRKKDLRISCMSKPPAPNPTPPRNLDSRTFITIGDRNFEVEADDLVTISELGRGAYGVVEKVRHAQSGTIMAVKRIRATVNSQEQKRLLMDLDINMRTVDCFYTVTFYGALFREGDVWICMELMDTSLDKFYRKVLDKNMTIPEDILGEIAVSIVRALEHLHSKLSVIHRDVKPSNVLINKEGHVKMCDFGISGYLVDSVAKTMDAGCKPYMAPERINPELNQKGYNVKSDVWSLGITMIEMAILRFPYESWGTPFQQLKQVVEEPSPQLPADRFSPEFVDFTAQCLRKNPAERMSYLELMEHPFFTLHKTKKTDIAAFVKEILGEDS
Experimental: as §1

[12] = target: T12, MAP2K6 (Homo sapiens, UniProt P52564); conditions: inhibitor concentration 1 μM
T12 construct: purchased Carna Biosciences
Experimental: as §1

[13] = target: T13, MAP2K7 (Homo sapiens, UniProt O14733); conditions: inhibitor concentration 1 μM
T13 construct: purchased Carna Biosciences
Experimental: as §1

[14] = target: T14, MST1 (Homo sapiens, UniProt Q13043)
T14 construct: purchased Carna Biosciences
T14 sequence (Q13043 1-487): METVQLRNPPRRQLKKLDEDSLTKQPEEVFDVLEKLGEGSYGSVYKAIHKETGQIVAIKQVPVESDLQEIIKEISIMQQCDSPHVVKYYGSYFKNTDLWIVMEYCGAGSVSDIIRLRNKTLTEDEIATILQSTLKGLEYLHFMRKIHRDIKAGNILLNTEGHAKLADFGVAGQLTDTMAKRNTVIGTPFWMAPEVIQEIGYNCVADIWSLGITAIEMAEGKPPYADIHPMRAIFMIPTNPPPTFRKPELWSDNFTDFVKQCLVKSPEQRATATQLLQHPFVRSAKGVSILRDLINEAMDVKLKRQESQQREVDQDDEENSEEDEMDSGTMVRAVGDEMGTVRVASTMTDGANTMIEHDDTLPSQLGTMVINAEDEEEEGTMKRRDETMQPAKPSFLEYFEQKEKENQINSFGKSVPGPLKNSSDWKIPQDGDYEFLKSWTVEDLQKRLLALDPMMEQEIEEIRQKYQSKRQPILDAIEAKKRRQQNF
Experimental: as §1

[15] = target: T15, MST3 (Homo sapiens, UniProt Q9Y6E0); conditions: inhibitor concentration 1 μM
T15 construct: purchased Carna Biosciences
Experimental: as §1

[16] = target: T16, PKD2 (Homo sapiens, UniProt Q9BZL6); conditions: inhibitor concentration 1 μM
T16 construct: purchased Carna Biosciences
Experimental: as §1

[17] = target: T17, RET(G691S) (Homo sapiens, UniProt P07949, G691S)
T17 construct: purchased Carna Biosciences
T17 sequence (P07949 29-1114 G691S): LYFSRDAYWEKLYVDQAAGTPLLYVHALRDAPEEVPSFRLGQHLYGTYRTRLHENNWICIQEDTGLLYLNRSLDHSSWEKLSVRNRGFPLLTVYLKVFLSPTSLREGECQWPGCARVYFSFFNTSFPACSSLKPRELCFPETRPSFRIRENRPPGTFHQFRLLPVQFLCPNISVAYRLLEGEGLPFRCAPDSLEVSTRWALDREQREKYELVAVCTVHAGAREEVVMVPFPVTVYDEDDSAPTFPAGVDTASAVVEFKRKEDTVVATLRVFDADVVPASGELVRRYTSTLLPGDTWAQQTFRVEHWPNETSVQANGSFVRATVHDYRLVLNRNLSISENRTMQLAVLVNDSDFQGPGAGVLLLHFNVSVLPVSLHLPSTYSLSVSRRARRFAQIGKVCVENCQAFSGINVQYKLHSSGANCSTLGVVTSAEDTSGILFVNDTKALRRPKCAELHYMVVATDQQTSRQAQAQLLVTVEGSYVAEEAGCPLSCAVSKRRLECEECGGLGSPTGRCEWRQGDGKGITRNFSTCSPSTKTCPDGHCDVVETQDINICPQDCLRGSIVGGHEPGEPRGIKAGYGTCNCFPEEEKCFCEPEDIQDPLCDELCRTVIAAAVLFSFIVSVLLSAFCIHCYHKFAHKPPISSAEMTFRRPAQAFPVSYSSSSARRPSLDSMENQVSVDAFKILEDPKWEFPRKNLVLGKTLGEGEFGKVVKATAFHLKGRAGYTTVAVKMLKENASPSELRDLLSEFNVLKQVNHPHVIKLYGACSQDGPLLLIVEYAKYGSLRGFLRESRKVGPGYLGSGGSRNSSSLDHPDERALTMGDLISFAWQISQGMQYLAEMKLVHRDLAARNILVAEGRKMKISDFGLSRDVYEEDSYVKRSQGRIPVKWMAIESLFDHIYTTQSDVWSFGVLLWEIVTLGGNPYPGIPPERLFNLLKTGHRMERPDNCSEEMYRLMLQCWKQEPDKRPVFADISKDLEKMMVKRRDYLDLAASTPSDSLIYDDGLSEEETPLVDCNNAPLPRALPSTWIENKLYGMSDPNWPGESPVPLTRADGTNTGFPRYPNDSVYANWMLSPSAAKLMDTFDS
Experimental: as §1

[18] = target: T18, RET(M918T) (Homo sapiens, UniProt P07949, M918T)
T18 construct: purchased Carna Biosciences
T18 sequence (P07949 29-1114 M918T): as the sequence (P07949 29-1114 G691S) above, with S663G, M890T counted along it
Experimental: as §1

[19] = target: T19, RET(S891A) (Homo sapiens, UniProt P07949, S891A)
T19 construct: purchased Carna Biosciences
T19 sequence (P07949 29-1114 S891A): as the sequence (P07949 29-1114 G691S) above, with S663G, S863A counted along it
Experimental: as §1

[20] = target: T20, RET(Y791F) (Homo sapiens, UniProt P07949, Y791F)
T20 construct: purchased Carna Biosciences
T20 sequence (P07949 29-1114 Y791F): as the sequence (P07949 29-1114 G691S) above, with S663G, Y763F counted along it
Experimental: as §1

[21] = target: T21, ROCK1 (Homo sapiens, UniProt Q13464); conditions: inhibitor concentration 1 μM
T21 construct: purchased Carna Biosciences
Experimental: as §1

[22] = target: T22, ROCK2 (Homo sapiens, UniProt O75116); conditions: inhibitor concentration 1 μM
T22 construct: purchased Carna Biosciences
Experimental: as §1

[23] = target: T23, YES (Homo sapiens, UniProt P07947)
T23 construct: purchased Carna Biosciences
T23 sequence (P07947 whole entry): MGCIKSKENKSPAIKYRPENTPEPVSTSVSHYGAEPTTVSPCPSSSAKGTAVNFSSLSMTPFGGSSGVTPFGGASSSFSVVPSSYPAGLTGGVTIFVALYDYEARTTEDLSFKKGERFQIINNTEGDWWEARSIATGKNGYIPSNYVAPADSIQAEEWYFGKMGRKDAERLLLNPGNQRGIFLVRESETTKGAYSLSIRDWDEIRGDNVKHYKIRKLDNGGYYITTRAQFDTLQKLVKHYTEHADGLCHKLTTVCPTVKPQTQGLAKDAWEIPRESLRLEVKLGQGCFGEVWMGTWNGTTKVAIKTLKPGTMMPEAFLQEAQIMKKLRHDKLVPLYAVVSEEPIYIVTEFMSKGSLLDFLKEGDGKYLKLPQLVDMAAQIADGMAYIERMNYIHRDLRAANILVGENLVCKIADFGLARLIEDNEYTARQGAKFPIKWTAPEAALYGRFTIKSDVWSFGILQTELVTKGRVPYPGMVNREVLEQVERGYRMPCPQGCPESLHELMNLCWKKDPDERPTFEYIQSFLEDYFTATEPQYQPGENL
Experimental: as §1

[24] = inhibitor concentration 0.01 μM

T1 sequence (Q07912 whole entry): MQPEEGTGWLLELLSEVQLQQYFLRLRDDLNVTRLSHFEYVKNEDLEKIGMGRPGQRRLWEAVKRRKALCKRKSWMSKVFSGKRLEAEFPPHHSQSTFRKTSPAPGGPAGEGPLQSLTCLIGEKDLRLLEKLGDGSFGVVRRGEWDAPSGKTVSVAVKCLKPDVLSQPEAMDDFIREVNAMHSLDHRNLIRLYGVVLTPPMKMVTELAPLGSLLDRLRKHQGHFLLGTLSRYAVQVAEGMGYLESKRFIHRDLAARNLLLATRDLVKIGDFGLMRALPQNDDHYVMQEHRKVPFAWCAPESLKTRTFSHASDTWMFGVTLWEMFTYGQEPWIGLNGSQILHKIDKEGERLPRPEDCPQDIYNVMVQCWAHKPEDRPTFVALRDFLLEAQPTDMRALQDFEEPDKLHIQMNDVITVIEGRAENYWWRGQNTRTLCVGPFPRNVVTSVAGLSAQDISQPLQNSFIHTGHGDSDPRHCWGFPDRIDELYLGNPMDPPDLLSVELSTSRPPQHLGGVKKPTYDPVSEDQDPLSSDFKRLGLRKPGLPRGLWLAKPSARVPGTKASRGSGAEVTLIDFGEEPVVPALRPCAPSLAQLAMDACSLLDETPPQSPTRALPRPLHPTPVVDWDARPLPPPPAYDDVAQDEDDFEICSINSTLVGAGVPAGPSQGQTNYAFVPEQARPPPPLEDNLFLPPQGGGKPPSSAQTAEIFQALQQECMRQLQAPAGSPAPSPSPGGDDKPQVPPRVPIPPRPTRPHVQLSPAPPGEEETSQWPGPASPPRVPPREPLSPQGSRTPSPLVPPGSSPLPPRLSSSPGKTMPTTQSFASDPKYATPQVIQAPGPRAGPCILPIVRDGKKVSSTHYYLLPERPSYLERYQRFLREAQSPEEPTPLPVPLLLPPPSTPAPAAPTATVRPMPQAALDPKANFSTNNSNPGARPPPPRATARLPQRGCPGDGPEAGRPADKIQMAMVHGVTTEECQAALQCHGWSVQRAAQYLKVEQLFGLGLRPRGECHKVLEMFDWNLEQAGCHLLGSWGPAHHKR

## O=C(c1c(F)ccc(NS(=O)(=O)CCCO)c1F)c1c[nH]c2ncc(-c3ccc(Cl)cc3)cc12 [200-17, N-[3-[5-(4-chlorophenyl)-1H-pyrrolo[2,3-b]pyridine-3-carbonyl]-2,4-difluorophenyl]-3-hydroxypropane-1-sulfonamide]
[1]; [24]
  inhibition at 0.01 µM: < 30%
[1]; inhibitor concentration 0.1 μM
  inhibition at 0.1 µM: < 50%
[1]; inhibitor concentration 1 μM
  inhibition at 1 µM: > 50%
[2]; [24]
  inhibition at 0.01 µM: < 30%
[2]; inhibitor concentration 0.1 μM
  inhibition at 0.1 µM: > 50%
[2]; inhibitor concentration 1 μM
  inhibition at 1 µM: > 50%
[3]; [24]
  inhibition at 0.01 µM: < 30%
[3]; inhibitor concentration 0.1 μM
  inhibition at 0.1 µM: > 50%
[3]; inhibitor concentration 1 μM
  inhibition at 1 µM: > 50%
[4]; [24]
  inhibition at 0.01 µM: < 30%
[4]; inhibitor concentration 0.1 μM
  inhibition at 0.1 µM: > 50%
[4]; inhibitor concentration 1 μM
  inhibition at 1 µM: > 50%
[5]
  inhibition at 1 µM: < 50%
[6]
  inhibition at 1 µM: > 50%
[7]
  inhibition at 1 µM: > 50%
[8]
  inhibition at 1 µM: > 50%
[9]; [24]
  inhibition at 0.01 µM: < 30%
[9]; inhibitor concentration 0.1 μM
  inhibition at 0.1 µM: < 50%
[9]; inhibitor concentration 1 μM
  inhibition at 1 µM: > 50%
[10]
  inhibition at 1 µM: > 50%
[11]
  inhibition at 1 µM: > 50%
[12]
  inhibition at 1 µM: < 50%
[13]
  inhibition at 1 µM: < 50%
[14]; [24]
  inhibition at 0.01 µM: < 30%
[14]; inhibitor concentration 0.1 μM
  inhibition at 0.1 µM: > 50%
[14]; inhibitor concentration 1 μM
  inhibition at 1 µM: > 50%
[15]
  inhibition at 1 µM: < 50%
[16]
  inhibition at 1 µM: < 50%
[17]; [24]
  inhibition at 0.01 µM: < 30%
[17]; inhibitor concentration 0.1 μM
  inhibition at 0.1 µM: < 50%
[17]; inhibitor concentration 1 μM
  inhibition at 1 µM: > 50%
[18]; [24]
  inhibition at 0.01 µM: < 30%
[18]; inhibitor concentration 0.1 μM
  inhibition at 0.1 µM: < 50%
[18]; inhibitor concentration 1 μM
  inhibition at 1 µM: > 50%
[19]; [24]
  inhibition at 0.01 µM: < 30%
[19]; inhibitor concentration 0.1 μM
  inhibition at 0.1 µM: > 50%
[19]; inhibitor concentration 1 μM
  inhibition at 1 µM: > 50%
[20]; [24]
  inhibition at 0.01 µM: < 30%
[20]; inhibitor concentration 0.1 μM
  inhibition at 0.1 µM: < 50%
[20]; inhibitor concentration 1 μM
  inhibition at 1 µM: > 50%
[21]
  inhibition at 1 µM: < 50%
[22]
  inhibition at 1 µM: < 50%
[23]; [24]
  inhibition at 0.01 µM: < 30%
[23]; inhibitor concentration 0.1 μM
  inhibition at 0.1 µM: > 50%
[23]; inhibitor concentration 1 μM
  inhibition at 1 µM: > 50%
